In US8029814B2, “Male produced pheromone in Tetropium fuscum (F.) and Tetropium cinnamopterum (kirby) (coleoptera: cerambycidae)” (Her Majesty the Queen in Right of Canada as represented by …, priority 2007, dated 2011):
“Also recorded” adds a separate entry of the source.

Tests used:
T. fuscum antennae = assay: Electroantennogram (EAG) antennal stimulation; set-up: species or system Tetropium fuscum; conditions: EAG puffs ca. 30 ng source concentration
Method: (§1) Extracts (cal male equivalent in hexane) and synthetics (30 ng fuscumol) were tested for antennal stimulation of T. fuscum and T. cinnamopterum males and females using an electroantennogram (EAG) system and EAG/GC-EAD signal recording (IDAC-232) and analysis software v.2.6 (SYNTECH, The Netherlands). Antennae from males and females were excised close to the head and used intact with SPECTRA-60™ gel (electrode gel) (Parker, USA) for electrical contact.
as §1, with “(ca.1” for “(cal”, “Spectra©-60” for “SPECTRA-60™”, “gel” for “gel (electrode gel)”

T. cinnamopterum = assay: Field trapping, Colossus traps, McNabs Island, Halifax, 2006; assay type: in vivo, Tetropium cinnamopterum
Text: (§2) FIG. 3. Mean number (+SE) of male and female T. fuscum (a) and T. cinnamopterum (b) captured in COLOSSUS TRAPS™ (insect traps) baited with synthetic pheromone candidate (P), host volatile lures (HV), P plus host volatiles (P+HV), or un-baited traps, over the entire 8-week trapping period. […] Data for T. fuscum males and females and T. cinnamopterum females were transformed by log (y+1); data for the catch of T. cinnamopterum males were transformed by square root.
(§3) The synthetic pheromone, alone and in combination with host volatile attractants, was tested in a field experiment on McNabs Island, Halifax, Nova Scotia, from 5 Jul. to 29 Aug. 2006, using COLOSSUS TRAPS™ (insect traps) (PheroTech Inc. Delta, British Columbia) (Sweeney et al. 2006)^4. Unbaited traps and traps baited with host volatiles alone served as controls, for a total of four treatments. Treatments were replicated 15 times in a randomized complete block design with 30 m between traps and blocks. Each trap was suspended from a rope tied between two conifers separated by at least 2 m, with the collecting bucket 10-20 cm above the ground. […] Pheromone was dispensed at ca. initially 800 μg/d dropping to 50 μg/d over a 4 week period (determined by weight loss at 23° C.) from a polymerase chain reaction (PCR) sample tube (Axygen Scientific Inc., CA) (0.2-mL thick) with a 1 mm diam. hole drilled in the cap. […]

T. fuscum [1] = assay: as above; assay type: in vivo, Tetropium fuscum; conditions: female and male T. fuscum; compared with host volatiles alone or unbaited traps; 8-week trapping
Text: as §2, §3

[2] = test system: T. cinnamopterum antennae; assay: Electroantennogram (EAG) antennal stimulation; set-up: species or system Tetropium cinnamopterum; conditions: EAG puffs ca. 30 ng source concentration
Method: as §1
as §1, with “(ca.1” for “(cal”, “Spectra©-60” for “SPECTRA-60™”, “gel” for “gel (electrode gel)”

T. castaneum [3] = assay: Field trapping of fuscumol enantiomers, APT Intercept traps, Bialowieza, Poland, 2007; assay type: in vivo, Tetropium castaneum; conditions: in the presence of host volatiles and ethanol
Text: (§4) FIG. 4. Mean catch of a. Tetropium fuscum and b. T. castaneum in APT INTERCEPT TRAPS™ (insect traps) baited with synthetic fuscumol (pure S—, pure R—, or racemic) alone and combined with host volatile lures (SB=spruce blend, a blend of monoterpenes in an ultra high release rate (UHR) lure; E=ethanol in an UHR lure) in Bialowieza, Poland in 2007.
Trapping experiments were run in 2007 in Halifax, NS, and Bialowieża, Poland to test the response of Tetropium species to fuscumol, a sex pheromone emitted by male Tetropium fuscum (F.) and male T. cinnamopterum. […] Male T. fuscum emit primarily S-fuscumol so we hypothesized that a synthetic lure of pure S-fuscumol would be more attractive than pure R-fuscumol, and possibly more attractive than racemic fuscumol, especially if R-fuscumol was the major pheromone component of a sympatric sibling species such as T. castaneum. The ultimate objective was to determine if we could improve the efficacy of the lure for use in applications for survey and control of T. fuscum. Conducting the experiment in Poland allowed us to test the response of a different population of T. fuscum from that in Halifax and also to determine the attraction of the pheromone lures to another potentially invasive species, T. castaneum. […]

T. castaneum [4] = assay: Trapping with low, medium or high release of racemic fuscumol or fuscumate plus SB and E lures (FIG. 13); assay type: in vivo, Tetropium castaneum; conditions: added to spruce volatile (SB) and ethanol (E) lures
Method: FIG. 13 Mean catch of T. castaneum in traps baited with low (1 mg/d), medium (4 mg/d) or high (32 mg/d) of racemic fuscumol plus spruce volatile (SB) and ethanol (E) lures.

T. fuscum [5] = assay: Field trapping of fuscumol enantiomers, APT Intercept traps, Bialowieza, Poland, 2007; assay type: in vivo, Tetropium fuscum
Text: as §4
Trapping experiments were run in 2007 in Halifax, NS, and Bialowieża, Poland to test the response of Tetropium species to fuscumol, a sex pheromone emitted by male Tetropium fuscum (F.) and male T. cinnamopterum. […] Male T. fuscum emit primarily S-fuscumol so we hypothesized that a synthetic lure of pure S-fuscumol would be more attractive than pure R-fuscumol, and possibly more attractive than racemic fuscumol, especially if R-fuscumol was the major pheromone component of a sympatric sibling species such as T. castaneum. The ultimate objective was to determine if we could improve the efficacy of the lure for use in applications for survey and control of T. fuscum. Conducting the experiment in Poland allowed us to test the response of a different population of T. fuscum from that in Halifax and also to determine the attraction of the pheromone lures to another potentially invasive species, T. castaneum.
There were eight different lure treatments: S-fuscumol; R-fuscumol; racemic fuscumol; S-fuscumol+UHR (ultra high release rate) spruce blend lure+UHR ethanol lure; R-fuscumol+UHR spruce blend lure+UHR ethanol lure; racemic fuscumol+UHR spruce blend lure+UHR ethanol lure; UHR spruce blend lure+UHR ethanol lure; and unbaited controls.
On McNabs Island near Halifax, NS, COLOSSUS TRAPS™ (insect traps) were used with 15 replicates per treatment and in Bialowieża, APT (Advanced Pheromone Technologies) INTERCEPT TRAPS™ (insect traps) were used with 9 replicates per treatment. The treatments were laid out in randomized complete block designs with 30 m spacing between traps. Traps were out from 15 May to 27 Jun. 2007 on McNabs Island and from 30 Apr. to 25 Jun. 2007 in Bialowieża. […]

T. fuscum [6] = assay: Trapping with low, medium or high release of racemic fuscumol or fuscumate plus SB and E lures (FIG. 14); assay type: in vivo, Tetropium fuscum; conditions: added to spruce volatile (SB) and ethanol (E) lures
Method: FIG. 14 Mean catch of T. fuscum in traps baited with low (1 mg/d), medium (4 mg/d) or high (32 mg/d) of racemic fuscumol plus spruce volatile (SB) and ethanol (E) lures.

CC(C)=CCC/C(C)=C/CCC(C)O (racemic) [racemic fuscumol, (E)-6,10-dimethyl-5,9-undecadien-2-ol]
antennal response in females relative to males (T. fuscum antennae): 2-3 times | antennal response (EAG) (T. fuscum antennae; females, n=5): 6.05 ± 0.3 mV | trap catch compared with unbaited traps (T. cinnamopterum; T. cinnamopterum, fuscumol alone): did not differ from that in unbaited traps | response of male T. cinnamopterum (T. cinnamopterum; males): Lack of response | trap catch compared among lure treatments (T. fuscum [1]): did not differ from that in unbaited traps | antennal response in females relative to males [2]: 2-3 times | antennal response (EAG) ([2]; females, n=5): 1.7 ± 0.2 mV | attraction of T. castaneum (T. castaneum [3]): attracted | catch compared to SB+E (T. castaneum [4]): significantly increased catch

CC(C)=CCC/C(C)=C/CC[C@@H](C)O [R-fuscumol]
attraction of T. fuscum to S-fuscumol in the presence of R-fuscumol (T. fuscum [5]; racemic versus S-fuscumol): not reduced

CC(C)=CCC/C(C)=C/CC[C@H](C)O [S-fuscumol, (2S, 5E)-6,10-dimethyl-5,9-undecadien-2-ol]
attractiveness compared with R-fuscumol or an unbaited trap (T. fuscum [5]; without host volatile lures): significantly more attractive | mean catch compared with racemic fuscumol (T. fuscum [5]; without host volatile lures): did not differ significantly | attraction of T. castaneum (T. castaneum [3]): attracted

CC(=O)OC/C=C(\C)CCC=C(C)C [fuscumate, geranyl acetate]
catch compared to SB+E (T. fuscum [6]): did not boost catch; also recorded: no effect on attraction | catch compared to SB+E (T. castaneum [4]): did not boost catch; also recorded: no effect on attraction
